{"source": "patent US5932577A", "about": "“Substituted oxobutyric acids as matrix metalloprotease inhibitors” (Bayer Corporation, priority 1997, dated 1999)", "key": {"[1]": {"molecular_target": "T1, Human Recombinant Gelatinase B (MMP-9) (Homo sapiens, UniProt P14780)", "T1 construct": "made in house", "T1 sequence (P14780 107-707 limits assumed)": "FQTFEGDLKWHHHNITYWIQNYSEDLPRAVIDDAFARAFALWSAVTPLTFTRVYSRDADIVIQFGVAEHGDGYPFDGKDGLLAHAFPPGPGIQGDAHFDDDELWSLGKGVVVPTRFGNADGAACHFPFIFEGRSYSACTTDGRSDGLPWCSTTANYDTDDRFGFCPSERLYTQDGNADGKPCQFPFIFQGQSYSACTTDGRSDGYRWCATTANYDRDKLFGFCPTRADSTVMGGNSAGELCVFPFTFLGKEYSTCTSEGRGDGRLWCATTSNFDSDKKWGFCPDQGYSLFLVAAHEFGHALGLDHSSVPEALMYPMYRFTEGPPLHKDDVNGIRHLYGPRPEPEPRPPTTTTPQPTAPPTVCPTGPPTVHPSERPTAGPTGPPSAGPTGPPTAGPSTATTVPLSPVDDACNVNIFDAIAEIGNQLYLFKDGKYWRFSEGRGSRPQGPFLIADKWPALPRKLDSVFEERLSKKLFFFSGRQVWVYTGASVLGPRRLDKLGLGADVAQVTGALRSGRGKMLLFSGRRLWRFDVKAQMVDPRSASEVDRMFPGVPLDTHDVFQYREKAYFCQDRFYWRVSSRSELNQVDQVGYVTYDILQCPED", "assay": "P218 quenched fluorescence assay (Microfluorometric Profiling Assay), MMP-9", "format": "biochemical", "settings": "6 μM P218, pH 6.5, 25 min at 37° C.; read-out: MMP-9 Fluorogenic IC50", "description": "(§1) P218 Quenched Fluorescence Assay for MMP Inhibition:\n(§2) The P218 quenched fluorescence assay (Microfluorometric Profiling Assay) is a modification of that originally described by Knight, et al., FEBS Lett. 296 263, 1992 for a related substance and a variety of matrix metalloproteinases (MMPs) in cuvettes. The assay was run with each invention compound and the three MMPs, MMP-3, MMP-9 and MMP-2, analyzed in parallel, adapted as follows for a 96-well microtiter plate and a Hamilton AT® workstation.\n(§3) P218 Fluorogenic Substrate:\n(§4) P218 is a synthetic substrate containing a 4-acetyl-7-methoxycoumarin (MCA) group in the N-terminal position and a 3-[2,4-dinitrophenyl]-L-2,3-diaminopropionyl (DPA) group internally. This is a modification of a peptide reported by Knight (1992) that was used as a substrate for matrix metalloproteinases. Once the P218 peptide is cleaved (putative clip site at the Ala-Leu bond), the fluorescence of the MCA group can be detected on a fluorometer with excitation at 328 nm and emission at 393 nm. P218 is currently being produced BACHEM exclusively for Bayer. P218 has the structure:\n(§5) H-MCA-Pro-Lys-Pro-Leu-Ala-Leu-DPA-Ala-Arg-NH2 (MW 1332.2)\nPreparation of Human Recombinant Pro-Gelatinase B (MMP-9):\nRecombinant Human Pro-MMP-9: Human pro-gelatinase B (pro-MMP-9) derived from U937 cDNA as described by Wilhelm, et al. J. Biol. Chem. 264, 17213 (1989) was expressed as the full-length form using a baculovirus protein expression system. The pro-enzyme was purified using methods previously described by Hibbs, et al. J. Biol. Chem. 260, 2493 (1984).\nActivation of Pro-MMP-9: […] 20 μg/mL in 50 mM Tris at pH 7.4, 10 mM CaCl2, 150 mM NaCl, and 0.005% Brij-35 (MMP-9 activation buffer) was activated by incubation with 0.5 mM p-aminophenylmercuric acetate (APMA) for 3.5 h at 37° C. The enzyme was dialyzed against the same buffer to revmove the APMA.\n(§6) Hamiltion Microlab AT Plus: The MMP-Profiling Assay is performed robotically on a Hamilton MicroLab AT Plus®. The Hamilton is programmed to: (1) serially dilute up to 11 potential inhibitors automatically from a 2.5 mM stock in 100% DMSO; (2) distribute substrate followed by inhibitor into a 96 well Cytofluor plate; and (3) add a single enzyme to the plate with mixing to start the reaction. Subsequent plates for each additional enzyme are prepared automatically by beginning the program at the substrate addition point, remixing the diluted inhibitors and beginning the reaction by addition of enzyme. In this way, all MMP assays were done using the same inhibitor dilutions.\n(§7) Millipore Cytofluor II. Following incubation, the plate was read on a Cytofluor II fluorometric plate reader with excitation at 340 nm and emission at 395 nm with the gain set at 80.\n(§8) Microfluorometric Reaction Buffer (MRB): Dilution of test compounds, enzymes, and P218 substrate for the microfluorometric assay were made in microfluorometric reaction buffer consisting of 50 mM 2-(N-morpholino)ethanesulfonic acid (MES) at pH 6.5 with 10 mM CaCl2, 150 mM NaCl, 0.005% Brij-35 and 1% DMSO.\n(§9) MMP Microfluorometric Profiling Assay. The assay is done with a final substrate concentration of 6 μM P218 and approximately 0.5 to 0.8 nM MMP with variable drug concentrations. The Hamilton is programmed to serially dilute up to 11 compounds from a 2.5 mM stock (100% DMSO) to 10× the final compounds concentrations in the assay. Initially, the instrument delivers various amounts of microfluoromentric reaction buffer (MRB) to a 96 tube rack of 1 ml Marsh dilution tubes. The instrument then picks up 20 μl of inhibitor (2.5 mM) from the sample rack and mixes it with a buffer in row A of the Marsh rack, resulting in a 50 μM drug concentration. The inhibitors are then serially diluted to 10, 5, 1, 0.2, 0.05 and 0.01 μM. […]"}, "[2]": {"molecular_target": "T2, Human Recombinant Gelatinase A (MMP-2) (Homo sapiens, UniProt P08253)", "T2 sequence (P08253 110-660)": "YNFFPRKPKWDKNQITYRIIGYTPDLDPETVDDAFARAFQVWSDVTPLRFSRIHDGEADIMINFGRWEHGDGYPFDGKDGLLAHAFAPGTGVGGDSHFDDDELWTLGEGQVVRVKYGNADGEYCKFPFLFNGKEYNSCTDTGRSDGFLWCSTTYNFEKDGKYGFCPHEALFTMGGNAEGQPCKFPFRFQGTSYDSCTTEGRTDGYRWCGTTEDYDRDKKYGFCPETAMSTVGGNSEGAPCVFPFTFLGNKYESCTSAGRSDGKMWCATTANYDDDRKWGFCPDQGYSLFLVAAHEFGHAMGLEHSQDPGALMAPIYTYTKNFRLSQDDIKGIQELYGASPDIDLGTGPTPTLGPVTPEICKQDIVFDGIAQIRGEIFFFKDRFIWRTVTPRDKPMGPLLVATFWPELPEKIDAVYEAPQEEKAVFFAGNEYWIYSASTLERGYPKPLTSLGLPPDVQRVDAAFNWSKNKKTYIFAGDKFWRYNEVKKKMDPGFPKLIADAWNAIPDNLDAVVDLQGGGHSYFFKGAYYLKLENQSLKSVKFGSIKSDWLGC", "assay": "P218 quenched fluorescence assay (Microfluorometric Profiling Assay), MMP-2", "format": "biochemical", "settings": "for IC50: 6 μM P218, pH 6.5, 25 min at 37° C., read-out: MMP-2 Fluorogenic IC50; for inhibition at 5 µM: read-out: MMP-2 Fluorogenic, I = % inhibition"}, "[3]": {"molecular_target": "T3, Recombinant Human CHO Stromelysin (MMP-3) (Homo sapiens, UniProt P08254)", "T3 construct": "made in house; host or cells: CHO (Chinese hamster ovary) cells", "T3 sequence (P08254 100-477)": "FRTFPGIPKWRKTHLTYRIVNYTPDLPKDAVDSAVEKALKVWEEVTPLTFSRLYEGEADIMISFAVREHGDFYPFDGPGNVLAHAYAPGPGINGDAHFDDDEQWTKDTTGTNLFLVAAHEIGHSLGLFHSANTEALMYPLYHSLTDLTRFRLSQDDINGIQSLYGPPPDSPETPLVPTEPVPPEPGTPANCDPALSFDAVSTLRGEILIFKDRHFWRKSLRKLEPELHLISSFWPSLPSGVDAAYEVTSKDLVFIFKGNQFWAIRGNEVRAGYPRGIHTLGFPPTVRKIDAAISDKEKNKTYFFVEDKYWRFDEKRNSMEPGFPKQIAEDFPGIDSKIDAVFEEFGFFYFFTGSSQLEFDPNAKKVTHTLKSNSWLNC", "assay": "P218 quenched fluorescence assay (Microfluorometric Profiling Assay), MMP-3", "format": "biochemical", "settings": "for IC50: 6 μM P218, pH 6.5, 25 min at 37° C., read-out: MMP-3 Fluorogenic IC50; for inhibition at 5 µM: read-out: MMP-3 Fluorogenic, I = % inhibition", "description": "as §1, §2, §3, §4, §5\nRecombinant Human CHO Stromelysin (MMP-3)\nRecombinant Human CHO Pro-MMP-3: Human CHO pro-stromelysin-257 (pro-MMP-3) was expressed and purified as described by Housley, et al., J. Biol. Chem. 268, 4481 (1993).\nActivation of Pro-MMP-3: Pro-MMP-3 at 1.72 μM (100 μg/mL) in 5 mM Tris at pH 7.5, 5 mM CaCl2, 25 mM NaCl, and 0.005% Brij-35 MMP-3) activation buffer) was activated by incubation with TPCK (N-tosyl-(L)-phenylalanine chloromethyl ketone) trypsin (1: 100 w/w to pro-MMP-3) at 25° C. for 30 min. The reaction was stopped by addition of soybean trypsin inhibitor (SBTI; 5:1 w/w to trypsin concentration). This activation protocol results in the formation of 45 kDa active MMP-3, which still contains the C-terminal portion of the enzyme.\nas §6, §7, §8, §9"}, "human colon tumor": {"test_system": "human colon tumor", "settings": "given intraperitoneally, orthotopic model, nude mice; cited from earlier work"}, "[4]": {"test_system": "human ovarian carcinoma xenografts", "settings": "cited from earlier work"}}, "data": [{"smiles": "CCCCCCCCCCCCC(=O)CC(CCN1C(=O)c2ccccc2C1=O)C(=O)O", "note": "(stereo not drawn) [IV, 1,3-dihydro-1,3-dioxo-α-(2-oxotetradecyl)-2H-isoindole-2-butanoicacid]", "values": [{"measurement": "IC50", "setting": "[1]", "value": 0.155, "unit": "µM"}, {"measurement": "IC50", "setting": "[2]", "value": 0.515, "unit": "µM"}, {"measurement": "IC50", "setting": "[3]", "value": 2.38, "unit": "µM"}]}, {"smiles": "COc1ccc(CCCC(=O)CC(CCc2ccccc2)C(=O)O)cc1", "note": "(stereo not drawn) [VII]", "values": [{"measurement": "inhibition at 5 µM", "setting": "[2]", "value": 18, "unit": "%"}, {"measurement": "inhibition at 5 µM", "setting": "[3]", "value": 3, "unit": "%"}]}, {"smiles": "CCCCCCCCCCCCCCC(=O)CC(CCN1C(=O)c2ccccc2C1=O)C(=O)O", "note": "(stereo not drawn) [VI, 1,3-dihydro-1,3-dioxo-α-(2-oxohexadecyl)-2H-isoindole-2-butanoic acid]", "values": [{"measurement": "IC50", "setting": "[1]", "value": 0.235, "unit": "µM"}, {"measurement": "IC50", "setting": "[2]", "value": 1.02, "unit": "µM"}, {"measurement": "inhibition at 5 µM", "setting": "[3]", "value": 45, "unit": "%"}]}, {"smiles": "CCCCCCCCCCCC(=O)CC(CCN1C(=O)c2ccccc2C1=O)C(=O)O", "note": "(stereo not drawn) [III, 1,3-dihydro-1,3-dioxo-α-(2-oxotidecyl)-2H-isoindole-2-butanoic acid]", "values": [{"measurement": "IC50", "setting": "[1]", "value": 0.091, "unit": "µM"}, {"measurement": "IC50", "setting": "[2]", "value": 0.75, "unit": "µM"}, {"measurement": "IC50", "setting": "[3]", "value": 2.95, "unit": "µM"}]}, {"smiles": "CCCCCCCCCCC(=O)CC(CCN1C(=O)c2ccccc2C1=O)C(=O)O", "note": "(stereo not drawn) [I, 1,3-dihydro-1,3-dioxo-α-(2-oxododecyl)-2H-isoindole-2-butanoic acid]", "values": [{"measurement": "IC50", "setting": "[1]", "value": 0.12, "unit": "µM"}, {"measurement": "IC50", "setting": "[2]", "value": 1.3, "unit": "µM"}, {"measurement": "IC50", "setting": "[3]", "value": 4.8, "unit": "µM"}]}, {"smiles": "COc1ccc(CC(=O)CC(CCc2ccccc2)C(=O)O)cc1", "note": "(stereo not drawn) [IX]", "values": [{"measurement": "inhibition at 5 µM", "setting": "[2]", "value": 18, "unit": "%"}, {"measurement": "inhibition at 5 µM", "setting": "[3]", "value": 9, "unit": "%"}]}, {"smiles": "CCCCCCCCCCCCCC(=O)CC(CCN1C(=O)c2ccccc2C1=O)C(=O)O", "note": "(stereo not drawn) [V, 1,3-dihydro-1,3-dioxo-α-(2-oxopentadecyl)-2H-isoindole-2-butanoic acid]", "values": [{"measurement": "IC50", "setting": "[1]", "value": 0.15, "unit": "µM"}, {"measurement": "IC50", "setting": "[2]", "value": 1.1, "unit": "µM"}, {"measurement": "IC50", "setting": "[3]", "value": 3.38, "unit": "µM"}]}, {"smiles": "CNC(=O)[C@H](Cc1ccccc1)NC(=O)[C@H](CC(C)C)[C@H](CSc1cccs1)C(=O)NO", "note": "[batimastat]", "values": [{"measurement": "inhibition of human colon tumor growth and spread", "setting": "human colon tumor", "value": "inhibits human colon tumor growth and spread"}, {"measurement": "survival of mice bearing human ovarian carcinoma xenografts", "setting": "[4]", "value": "prolongs the survival"}]}, {"smiles": "CCCCCCCCCC(=O)CC(CCN1C(=O)c2ccccc2C1=O)C(=O)O", "note": "(stereo not drawn) [II, 1,3-dihydro-1,3-dioxo-α-(2-oxoundecyl)-2H-isoindole-2-butanoic acid]", "values": [{"measurement": "IC50", "setting": "[1]", "value": 0.24, "unit": "µM"}, {"measurement": "IC50", "setting": "[2]", "value": 1.85, "unit": "µM"}, {"measurement": "IC50", "setting": "[3]", "value": 5, "unit": "µM"}]}]}
